3 compounds from ChEMBL document CHEMBL5608181, “Discovery of indazole inhibitors for heat shock protein 90 as anti-cancer agents” (Eur J Med Chem, 2024) can be followed below.

In one data set the test system is BT-474. The data set is described as follows: Antiproliferative activity against human BT-474 cells assessed as inhibition of cell viability at 10 uM measured after 72 hrs by CellTiter 96 Aqueous One Solution Cell Proliferation Assay relative to control. It is filed as functional.
The target of the next data set is CYP3A4 (Homo sapiens, UniProt P08684). The data set is described as follows: Inhibition of CYP3A4 (unknown origin) at 10 uM relative to control. Type of data set: ADME.
Sequence of CYP3A4 (P08684 whole entry): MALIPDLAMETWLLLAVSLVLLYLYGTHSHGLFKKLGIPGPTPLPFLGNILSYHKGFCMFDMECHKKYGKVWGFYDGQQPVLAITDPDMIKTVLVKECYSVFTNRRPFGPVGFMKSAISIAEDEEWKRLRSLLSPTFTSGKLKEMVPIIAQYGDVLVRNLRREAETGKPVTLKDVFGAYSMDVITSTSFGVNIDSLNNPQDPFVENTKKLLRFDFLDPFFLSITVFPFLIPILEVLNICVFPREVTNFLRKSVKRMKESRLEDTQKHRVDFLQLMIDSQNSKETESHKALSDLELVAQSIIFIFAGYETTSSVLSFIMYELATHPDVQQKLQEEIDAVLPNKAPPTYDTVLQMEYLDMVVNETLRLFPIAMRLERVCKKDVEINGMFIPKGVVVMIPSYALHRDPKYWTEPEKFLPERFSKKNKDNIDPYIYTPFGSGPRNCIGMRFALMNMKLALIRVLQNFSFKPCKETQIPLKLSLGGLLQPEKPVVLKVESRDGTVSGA
Another data set addresses CYP2C9 (Homo sapiens, UniProt P11712). Kind of data set: Inhibition of CYP2C9 (unknown origin) at 10 uM relative to control. It is filed as ADME.
The next data set concerns the target CYP2C19 (Homo sapiens, UniProt P33261). The data set is described as follows: Inhibition of CYP2C19 (unknown origin) at 10 uM relative to control. Type of data set: ADME.
For the next data set, the target named is T1, CYP1A2 (Homo sapiens, UniProt P05177).
T1 sequence (P05177 whole entry): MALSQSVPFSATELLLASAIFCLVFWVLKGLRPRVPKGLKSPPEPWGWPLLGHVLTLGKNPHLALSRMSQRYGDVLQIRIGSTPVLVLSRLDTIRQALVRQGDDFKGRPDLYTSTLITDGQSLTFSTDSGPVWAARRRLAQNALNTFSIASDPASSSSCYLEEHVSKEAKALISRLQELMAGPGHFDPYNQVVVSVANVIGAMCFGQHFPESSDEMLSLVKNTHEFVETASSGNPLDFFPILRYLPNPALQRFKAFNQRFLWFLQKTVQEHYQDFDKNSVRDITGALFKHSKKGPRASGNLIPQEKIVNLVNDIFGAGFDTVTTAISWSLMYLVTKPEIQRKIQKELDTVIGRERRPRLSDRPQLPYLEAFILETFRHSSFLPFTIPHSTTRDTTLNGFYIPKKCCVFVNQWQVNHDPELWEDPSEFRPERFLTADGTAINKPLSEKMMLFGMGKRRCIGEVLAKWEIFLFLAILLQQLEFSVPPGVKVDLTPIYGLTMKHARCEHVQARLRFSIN
Kind of data set: Inhibition of CYP1A2 (unknown origin) at 10 uM relative to control. Type of data set: ADME.

SMILES strings stand for the structures. A value given as a limit tells only on which side of the number the result lay.

Sequence of CYP2C9 (P11712 whole entry): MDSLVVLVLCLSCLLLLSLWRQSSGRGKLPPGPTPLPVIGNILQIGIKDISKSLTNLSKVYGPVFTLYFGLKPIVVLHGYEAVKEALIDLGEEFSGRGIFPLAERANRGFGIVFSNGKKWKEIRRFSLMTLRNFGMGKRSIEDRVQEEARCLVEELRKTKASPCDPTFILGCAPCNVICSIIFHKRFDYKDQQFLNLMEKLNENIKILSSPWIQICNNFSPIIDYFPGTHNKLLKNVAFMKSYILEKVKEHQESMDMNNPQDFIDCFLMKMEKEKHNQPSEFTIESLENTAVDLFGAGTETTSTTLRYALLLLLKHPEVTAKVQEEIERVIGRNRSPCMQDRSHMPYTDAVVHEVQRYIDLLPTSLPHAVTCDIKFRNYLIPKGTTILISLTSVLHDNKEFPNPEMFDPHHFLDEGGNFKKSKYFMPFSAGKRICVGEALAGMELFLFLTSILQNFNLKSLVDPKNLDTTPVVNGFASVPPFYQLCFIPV
Sequence of CYP2C19 (P33261 whole entry): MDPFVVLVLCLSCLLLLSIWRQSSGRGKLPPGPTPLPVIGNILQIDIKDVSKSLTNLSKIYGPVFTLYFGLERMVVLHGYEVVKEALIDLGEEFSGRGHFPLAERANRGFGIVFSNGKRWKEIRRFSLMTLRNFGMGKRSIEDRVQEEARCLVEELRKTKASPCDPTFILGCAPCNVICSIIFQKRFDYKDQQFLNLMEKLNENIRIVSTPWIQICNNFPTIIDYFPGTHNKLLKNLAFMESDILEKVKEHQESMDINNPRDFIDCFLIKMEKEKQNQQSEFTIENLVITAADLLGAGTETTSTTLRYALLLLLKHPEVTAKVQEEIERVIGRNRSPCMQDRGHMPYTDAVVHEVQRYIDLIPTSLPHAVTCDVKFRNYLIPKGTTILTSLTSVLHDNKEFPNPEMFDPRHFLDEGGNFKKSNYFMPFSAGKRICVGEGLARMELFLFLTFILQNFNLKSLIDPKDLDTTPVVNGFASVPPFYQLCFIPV

What is called inhibition is how much of the control response was suppressed. Regarding `COCCCn1nc(NC(=O)c2ccc3c(c2OC)C=CC(C)(C)O3)c2ccccc21`, in the data set on BT-474, the inhibition at 10 µM is more than 50%.
As for `CC(=O)N1CCN(c2ccc(OCC3COC(Cn4ccnc4)(c4ccc(Cl)cc4Cl)O3)cc2)CC1` (stereo unspecified) [KETOCONAZOLE], the inhibition at 10 µM at CYP3A4 is 32%; against CYP2C9, 96.8%; against CYP2C19, more than 100%; on CYP1A2 it was more than 100%.
For `COc1c(C(=O)Nc2ccc3c(C)nn(CCN4CCOCC4)c3c2)ccc2c1C=CC(C)(C)O2`, the inhibition at 10 µM in the data set on BT-474 was more than 50%.
